{
  "source": "paper PMC5964349",
  "about": "“A Single-Domain Response Regulator Functions as an Integrating Hub To Coordinate General Stress Response and Development in Alphaproteobacteria” (mBio, 2018)",
  "assay_in_all_cases": "autophosphorylation, SDS-PAGE autoradiography",
  "type_in_all_cases": "biochemical",
  "key": {"[1]": {"molecular_target": "T1, CC2874 (Caulobacter vibrioides, UniProt Q9A4G0)", "T1 construct": "gene CC_2874; recombinant from E. coli BL21, MBP-tagged (partly cleaved), Ni-NTA purified", "T1 sequence (Q9A4G0 1-794)": "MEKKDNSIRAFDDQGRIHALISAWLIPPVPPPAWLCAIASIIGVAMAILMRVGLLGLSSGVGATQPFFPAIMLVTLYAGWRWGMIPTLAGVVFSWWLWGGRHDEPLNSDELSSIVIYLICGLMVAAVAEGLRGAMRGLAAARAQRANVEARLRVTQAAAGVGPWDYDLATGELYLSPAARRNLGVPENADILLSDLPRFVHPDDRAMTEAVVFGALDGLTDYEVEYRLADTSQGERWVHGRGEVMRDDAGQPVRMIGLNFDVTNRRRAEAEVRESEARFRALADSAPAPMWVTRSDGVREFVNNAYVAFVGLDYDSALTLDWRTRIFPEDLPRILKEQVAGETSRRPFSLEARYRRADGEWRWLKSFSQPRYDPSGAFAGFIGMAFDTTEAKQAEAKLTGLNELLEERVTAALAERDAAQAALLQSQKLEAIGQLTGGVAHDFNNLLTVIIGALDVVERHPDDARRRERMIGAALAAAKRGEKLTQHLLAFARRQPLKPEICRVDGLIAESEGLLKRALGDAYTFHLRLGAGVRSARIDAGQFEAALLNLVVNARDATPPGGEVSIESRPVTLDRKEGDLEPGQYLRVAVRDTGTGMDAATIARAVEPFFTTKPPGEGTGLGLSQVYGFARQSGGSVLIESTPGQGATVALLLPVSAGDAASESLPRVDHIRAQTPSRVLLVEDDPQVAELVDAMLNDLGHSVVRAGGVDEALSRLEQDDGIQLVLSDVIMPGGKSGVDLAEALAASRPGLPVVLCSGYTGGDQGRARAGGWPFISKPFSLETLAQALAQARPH", "conditions": "500 µM ATP with [γ-32P]ATP; 5 mM MgCl2, pH 8.0, room temperature, 15 min; labelled compound"}, "[2]": {"molecular_target": "T2, CC2874 lacking its C-terminal receiver domain (ΔREC) (Caulobacter vibrioides, UniProt Q9A4G0)", "T2 construct": "gene CC_2874; recombinant from E. coli BL21, Ni-NTA purified", "conditions": "500 µM ATP with [γ-32P]ATP; 5 mM MgCl2, pH 8.0, room temperature, 15 min; labelled compound"}, "[3]": {"molecular_target": "T3, CC0836 (Caulobacter vibrioides, UniProt Q9A9X5)", "T3 construct": "gene CC_0836; recombinant from E. coli BL21, Ni-NTA purified", "T3 sequence (Q9A9X5 1-754)": "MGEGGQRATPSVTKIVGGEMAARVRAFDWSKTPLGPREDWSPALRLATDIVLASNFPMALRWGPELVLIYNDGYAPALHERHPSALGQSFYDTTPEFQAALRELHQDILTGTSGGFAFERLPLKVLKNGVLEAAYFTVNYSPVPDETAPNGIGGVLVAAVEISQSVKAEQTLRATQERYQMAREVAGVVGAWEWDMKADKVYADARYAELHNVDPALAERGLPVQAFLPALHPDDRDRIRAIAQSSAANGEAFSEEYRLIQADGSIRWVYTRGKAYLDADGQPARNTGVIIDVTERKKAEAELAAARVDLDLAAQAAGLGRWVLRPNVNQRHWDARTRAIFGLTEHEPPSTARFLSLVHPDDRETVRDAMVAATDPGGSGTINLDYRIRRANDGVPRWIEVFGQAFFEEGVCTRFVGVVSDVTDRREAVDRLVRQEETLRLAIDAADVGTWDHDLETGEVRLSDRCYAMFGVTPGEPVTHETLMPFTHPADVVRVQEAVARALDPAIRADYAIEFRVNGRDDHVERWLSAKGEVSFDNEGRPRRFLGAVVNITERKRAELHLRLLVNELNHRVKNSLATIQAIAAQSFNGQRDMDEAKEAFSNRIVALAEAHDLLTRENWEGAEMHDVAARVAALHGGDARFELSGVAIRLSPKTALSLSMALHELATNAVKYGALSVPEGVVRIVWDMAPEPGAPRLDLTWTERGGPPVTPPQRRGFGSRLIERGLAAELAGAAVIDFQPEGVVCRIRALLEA", "conditions": "500 µM ATP with [γ-32P]ATP; 5 mM MgCl2, pH 8.0, room temperature, 30 min; labelled compound"}, "[4]": {"molecular_target": "T4, CC1683 (Caulobacter vibrioides, UniProt Q9A7N7)", "T4 construct": "gene CC_1683; recombinant from E. coli BL21, Ni-NTA purified", "T4 sequence (Q9A7N7 1-555)": "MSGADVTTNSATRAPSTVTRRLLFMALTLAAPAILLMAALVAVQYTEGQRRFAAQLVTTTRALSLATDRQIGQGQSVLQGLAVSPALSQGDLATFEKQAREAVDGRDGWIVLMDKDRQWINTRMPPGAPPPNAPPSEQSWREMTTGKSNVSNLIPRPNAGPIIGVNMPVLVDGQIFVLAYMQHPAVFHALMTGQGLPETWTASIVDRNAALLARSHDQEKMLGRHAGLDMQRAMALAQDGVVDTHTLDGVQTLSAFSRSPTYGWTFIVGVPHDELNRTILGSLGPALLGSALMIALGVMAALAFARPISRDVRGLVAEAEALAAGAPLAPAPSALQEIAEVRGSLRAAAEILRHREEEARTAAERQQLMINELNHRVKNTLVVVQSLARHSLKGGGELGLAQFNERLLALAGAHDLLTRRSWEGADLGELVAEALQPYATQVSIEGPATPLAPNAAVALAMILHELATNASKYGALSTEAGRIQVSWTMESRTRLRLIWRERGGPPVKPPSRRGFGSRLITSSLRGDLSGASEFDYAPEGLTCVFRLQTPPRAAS", "conditions": "500 µM ATP with [γ-32P]ATP; 5 mM MgCl2, pH 8.0, room temperature, 30 min; labelled compound"}, "[5]": {"molecular_target": "T5, CC2554 (Caulobacter vibrioides, UniProt Q9A599)", "T5 construct": "gene CC_2554; recombinant from E. coli BL21, Ni-NTA purified", "T5 sequence (Q9A599 1-338)": "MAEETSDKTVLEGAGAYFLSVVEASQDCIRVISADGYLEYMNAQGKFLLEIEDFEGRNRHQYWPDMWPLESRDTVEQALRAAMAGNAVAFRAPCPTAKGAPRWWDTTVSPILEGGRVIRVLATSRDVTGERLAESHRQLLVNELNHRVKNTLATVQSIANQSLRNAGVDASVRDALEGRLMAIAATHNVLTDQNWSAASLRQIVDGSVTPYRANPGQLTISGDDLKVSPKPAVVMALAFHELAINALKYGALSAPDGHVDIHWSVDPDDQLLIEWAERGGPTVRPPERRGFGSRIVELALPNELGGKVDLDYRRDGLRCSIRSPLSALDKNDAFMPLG", "conditions": "500 µM ATP with [γ-32P]ATP; 5 mM MgCl2, pH 8.0, room temperature, 15 min; labelled compound"}, "[6]": {"molecular_target": "T6, CC3170 (Caulobacter vibrioides, UniProt Q9A3N2)", "T6 construct": "gene CC_3170; recombinant from E. coli BL21, Ni-NTA purified", "T6 sequence (Q9A3N2 1-473)": "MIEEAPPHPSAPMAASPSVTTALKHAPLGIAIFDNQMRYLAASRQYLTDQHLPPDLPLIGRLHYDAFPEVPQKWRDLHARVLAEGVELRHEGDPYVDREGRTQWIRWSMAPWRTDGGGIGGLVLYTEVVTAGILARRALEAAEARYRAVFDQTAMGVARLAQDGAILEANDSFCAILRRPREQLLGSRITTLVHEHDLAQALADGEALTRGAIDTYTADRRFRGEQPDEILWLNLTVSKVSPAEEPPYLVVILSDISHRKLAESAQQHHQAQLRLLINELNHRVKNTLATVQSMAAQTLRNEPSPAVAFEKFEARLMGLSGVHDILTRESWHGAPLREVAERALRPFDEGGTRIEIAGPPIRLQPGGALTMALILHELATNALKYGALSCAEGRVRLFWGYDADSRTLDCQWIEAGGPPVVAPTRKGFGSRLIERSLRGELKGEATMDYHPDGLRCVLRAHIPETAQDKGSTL", "conditions": "500 µM ATP with [γ-32P]ATP; 5 mM MgCl2, pH 8.0, room temperature, 30 min; labelled compound"}, "[7]": {"molecular_target": "T7, CC3058 (Caulobacter vibrioides, UniProt Q9A3Z2)", "T7 construct": "gene CC_3058; recombinant from E. coli BL21, Ni-NTA purified", "T7 sequence (Q9A3Z2 1-465)": "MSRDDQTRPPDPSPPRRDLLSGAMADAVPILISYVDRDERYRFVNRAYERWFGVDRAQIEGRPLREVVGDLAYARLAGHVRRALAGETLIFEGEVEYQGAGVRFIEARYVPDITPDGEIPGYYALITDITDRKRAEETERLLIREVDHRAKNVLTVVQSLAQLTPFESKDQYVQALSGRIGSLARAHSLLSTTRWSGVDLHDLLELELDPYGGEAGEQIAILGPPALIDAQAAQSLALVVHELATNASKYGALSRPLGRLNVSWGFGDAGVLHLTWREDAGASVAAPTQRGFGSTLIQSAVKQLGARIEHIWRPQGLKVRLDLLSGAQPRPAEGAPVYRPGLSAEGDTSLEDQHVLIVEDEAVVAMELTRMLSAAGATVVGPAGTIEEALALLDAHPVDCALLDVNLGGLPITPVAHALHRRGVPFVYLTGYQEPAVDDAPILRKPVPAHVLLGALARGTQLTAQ", "conditions": "500 µM ATP with [γ-32P]ATP; 5 mM MgCl2, pH 8.0, room temperature, 30 min; labelled compound"}},
  "data": [
    {"compound": "Nc1ncnc2c1ncn2[C@@H]1O[C@H](COP(=O)(O)OP(=O)(O)OP(=O)(O)O)[C@@H](O)[C@H]1O", "note": "[ATP]", "values": [
      {"measurement": "autophosphorylation, SDS-PAGE autoradiography", "setting": "[1]", "result": "Autophosphorylation of histidine kinases CC2554 (left) and CC2874 (right) and phosphotransfer to MrrA."},
      {"measurement": "autophosphorylation, SDS-PAGE autoradiography", "setting": "[2]", "result": "this part of the kinase is not required for autophosphorylation and phosphotransfer to MrrA"},
      {"measurement": "autophosphorylation, SDS-PAGE autoradiography", "setting": "[3]", "result": "Purified kinases CC0836, CC1683, CC3058, and CC3170 were mixed with ATP"},
      {"measurement": "autophosphorylation, SDS-PAGE autoradiography", "setting": "[4]", "result": "Purified kinases CC0836, CC1683, CC3058, and CC3170 were mixed with ATP"},
      {"measurement": "autophosphorylation, SDS-PAGE autoradiography", "setting": "[5]", "result": "Autophosphorylation of histidine kinases CC2554 (left) and CC2874 (right) and phosphotransfer to MrrA."},
      {"measurement": "autophosphorylation, SDS-PAGE autoradiography", "setting": "[6]", "result": "Purified kinases CC0836, CC1683, CC3058, and CC3170 were mixed with ATP"},
      {"measurement": "autophosphorylation, SDS-PAGE autoradiography", "setting": "[7]", "result": "Purified kinases CC0836, CC1683, CC3058, and CC3170 were mixed with ATP"}
    ]}
  ]
}
